Series [1] relates to lambsquarter (Chenopodium album). As to the kind of experiment: Postemergence herbicidal activity. It is filed as in vivo. The note with it: post-emergent, 140 g ai/ha, after 14 days; for pest or weed control at 140 g/ha: Chenopodium album, post-emergence, 336 h, read-out: % Control CHEAL. The method, boiled down: (§1)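 Plants grown 7-21 days in greenhouse (about 15 h photoperiod, 23-29° C day, 22-28° C night) to first or second true leaf stage. Compounds in acetone/water/isopropanol/DMSO carrier with crop oil concentrate and Triton X-155 sprayed overhead at 187 L/ha; controls received solvent blank. Plants sub-irrigated afterwards; dose responses analysed by probit analysis.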

Series [2] has as its system redroot pigweed (Amaranthus retroflexus). The series is described as follows: Postemergence herbicidal activity. Type of series: in vivo. As to conditions: post-emergent, 140 g ai/ha, after 14 days; for pest or weed control at 140 g/ha: Amaranthus retroflexus, post-emergence, 336 h, read-out: % Control AMARE. The method, boiled down: as §1
Series [3] has as its system velvetleaf (Abutilon theophrasti). The series is described as follows: Postemergence herbicidal activity. Type of series: in vivo. The note with it: post-emergent, 140 g ai/ha, after 14 days; for pest or weed control at 140 g/ha: Abutilon theophrasti, post-emergence, 336 h, read-out: % Control ABUTH. In a few lines: as §1
The next series deals with Galium aparine. The series is described as follows: Postemergence herbicidal activity in cereal crops. It is filed as in vivo. As to conditions: post-emergent, after 20-22 days; for pest or weed control at 70 g/ha / pest or weed control at 17.5 g/ha: Galium aparine, post-emergence, 480 h, read-out: % Control GALAP; for pest or weed control at 70 g/ha: 70 g ai/ha; for pest or weed control at 17.5 g/ha: 17.5 g ai/ha. On the procedure: (§2) When required to ensure good germination and healthy plants, a fungicide treatment and/or other chemical or physical treatment was applied. The plants were grown for 7-36 days in a greenhouse with an approximate 14 hour photoperiod which was maintained at about 18° C. during the day and 17° C. during the night. Nutrients and water were added on a regular basis and supplemental lighting was provided with overhead metal halide 1000-Watt lamps as necessary. The plants were employed for testing when they reached the second or third true leaf stage. […] The concentrated stock solutions obtained were diluted with 16 mL of an aqueous mixture containing acetone, water, isopropyl alcohol, DMSO, Agri-dex crop oil concentrate, and Triton® X-77 surfactant in a 64.7:26.0:6.7:2.0:0.7:0.01 v/v ratio to obtain spray solutions containing the highest application rates. […] Compound requirements are based upon a 12 mL application volume at a rate of 187 L/ha. Formulated compounds were applied to the plant material with an overhead Mandel track sprayer equipped with a […] nozzles calibrated to deliver 187 L/ha over an application area of 0.503 square meters at a spray height of 18 inches (43 cm) above average plant canopy height. Control plants were sprayed in the same manner with the blank. The treated plants and control plants were placed in a greenhouse as described above and watered by sub-irrigation to prevent wash-off of the test compounds.

In a further series the test system is Lamium purpureum. The series is described as follows: Postemergence herbicidal activity in cereal crops. The note with it: post-emergent, after 20-22 days; for pest or weed control at 70 g/ha / pest or weed control at 17.5 g/ha: Lamium purpureum, post-emergence, 480 h, read-out: % Control LAMPU; for pest or weed control at 70 g/ha: 70 g ai/ha; for pest or weed control at 17.5 g/ha: 17.5 g ai/ha. Type of series: in vivo. On the procedure:
as §2

Another series relates to Papaver rhoeas. As to the kind of experiment: Postemergence herbicidal activity in cereal crops. It is filed as in vivo. The note with it: post-emergent, after 20-22 days; for pest or weed control at 70 g/ha / pest or weed control at 17.5 g/ha: Papaver rhoeas, post-emergence, 480 h, read-out: % Control PAPRH; for pest or weed control at 70 g/ha: 70 g ai/ha; for pest or weed control at 17.5 g/ha: 17.5 g ai/ha. The method, then:
as §2

In the next series the test system is Veronica persica. The series is described as follows: Postemergence herbicidal activity in cereal crops. Type of series: in vivo. As to conditions: post-emergent, after 20-22 days; for pest or weed control at 70 g/ha / pest or weed control at 17.5 g/ha: Veronica persica, post-emergence, 480 h, read-out: % Control VERPE; for pest or weed control at 70 g/ha: 70 g ai/ha; for pest or weed control at 17.5 g/ha: 17.5 g ai/ha. The method, then: as §2

Another series relates to barley (Hordeum vulare). The series is described as follows: Postemergence herbicidal activity in cereal crops. The note with it: crop, post-emergent, after 20-22 days; for pest or weed control at 70 g/ha / pest or weed control at 17.5 g/ha: Hordeum, post-emergence, 480 h, read-out: % Control HORVS; for pest or weed control at 70 g/ha: 70 g ai/ha; for pest or weed control at 17.5 g/ha: 17.5 g ai/ha. It is filed as in vivo. The method, then: as §2

Series [4] deals with wheat (Triticum aestivum). As to the kind of experiment: Postemergence herbicidal activity in cereal crops. Type of series: in vivo. As to conditions: crop, post-emergent, after 20-22 days; for plant injury at 70 g/ha / plant injury at 17.5 g/ha: Triticum aestivum, post-emergence, 480 h, read-out: % Control TRZAS; for plant injury at 70 g/ha: 70 g ai/ha; for plant injury at 17.5 g/ha: 17.5 g ai/ha. On the procedure:
as §2

Series [5] has as its system lambsquarter (Chenopodium album). As to the kind of experiment: Preemergence herbicidal activity. As to conditions: pre-emergent, 140 g ai/ha, after 20-22 days; for pest or weed control at 140 g/ha: Chenopodium album, pre-emergence, 480 h, read-out: % Control CHEAL. It is filed as in vivo. In a few lines: (§3)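 Seeds sown in 70:30 loam (pH about 8.1, about 1.5% organic matter) and sand mix, then sprayed preemergence at 187 L/ha with a track sprayer; controls received solvent blank. Pots kept in greenhouse, about 15 h photoperiod, about 23-29° C. day and 22-28° C. night, top-irrigated.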

Series [6] deals with redroot pigweed (Amaranthus retroflexus). The series is described as follows: Preemergence herbicidal activity. It is filed as in vivo. As to conditions: pre-emergent, 140 g ai/ha, after 20-22 days; for pest or weed control at 140 g/ha: Amaranthus retroflexus, pre-emergence, 480 h, read-out: % Control AMARE. The method, boiled down:
as §3

Series [7] relates to velvetleaf (Abutilon theophrasti). The series is described as follows: Preemergence herbicidal activity. As to conditions: pre-emergent, 140 g ai/ha, after 20-22 days; for pest or weed control at 140 g/ha: Abutilon theophrasti, pre-emergence, 480 h, read-out: % Control ABUTH. Type of series: in vivo. The method, boiled down: as §3

One may read the melting point as the temperature of the solid-liquid transition. In turn, `COC(=O)c1nc(-c2cc(OC)c(F)cc2F)cc(N)c1Cl` [Compound 73, 4-Amino-3-chloro-6-(2,4-difluoro-5-methoxyphenyl)pyridine-2-carboxylic acid, methyl ester] displayed a melting point of 128 to 130 °C. For the same compound, in series [1], the pest or weed control at 140 g/ha is 100%. Also, the pest or weed control at 140 g/ha in series [2] stood at 100%. Also, the pest or weed control at 140 g/ha in series [3] came to 90%. In the series with Galium aparine, the pest or weed control at 70 g/ha was 95%. Also, the pest or weed control at 70 g/ha in the series on Lamium purpureum turned out to be 99%. The pest or weed control at 70 g/ha with Papaver rhoeas is 95%. Moreover, the pest or weed control at 70 g/ha in the series with Veronica persica came to 60%. Moreover, in the series with barley (Hordeum vulare), the pest or weed control at 70 g/ha amounted to 0%. The plant injury at 70 g/ha in [4] turned out to be 0%.

In the case of `COC(=O)c1nc(-c2cc(OC)c(Cl)cc2F)cc(N)c1Cl` [Compound 43, 4-Amino-3-chloro-6-(4-chloro-2-fluoro-5-methoxyphenyl)pyridine-2-carboxylic acid methyl ester], the pest or weed control at 140 g/ha in series [1] is 100%; in series [2], 100%; in [3], 100%; in series [5] it was 100%; in [6] it was 100%; in series [7], 98%. Besides, the pest or weed control at 70 g/ha with Galium aparine is 65%; with Lamium purpureum, 99%; in the series on Papaver rhoeas, 85%; in the series with Veronica persica it was 30%; in the series with barley (Hordeum vulare), 5%. In series [4], the plant injury at 70 g/ha is 0%.

Turning to `COC(=O)c1nc(-c2ccc(C(F)F)c(OC)c2F)cc(N)c1Cl` [Compound 71, 4-Amino-3-chloro-6-(4-difluoromethyl-2-fluoro-3-methoxyphenyl)pyridine-2-carboxylic acid, methyl ester], the melting point is 145 to 147 °C. The pest or weed control at 140 g/ha in series [1] was 85%. In series [2], the pest or weed control at 140 g/ha worked out at 80%. The pest or weed control at 140 g/ha in series [3] came out at 100%. Besides, the pest or weed control at 17.5 g/ha with Galium aparine stood at 95%. Moreover, the pest or weed control at 17.5 g/ha with Lamium purpureum is 95%. The pest or weed control at 17.5 g/ha with Papaver rhoeas came out at 95%. Further, the pest or weed control at 17.5 g/ha in the series on Veronica persica came to 50%. In the series with barley (Hordeum vulare), the pest or weed control at 17.5 g/ha amounted to 0%. Moreover, the plant injury at 17.5 g/ha in series [4] stood at 0%.

`COC(=O)c1nc(-c2ccc(C(F)(F)F)c(OC)c2F)cc(N)c1Cl` [Compound 45, 4-Amino-3-chloro-6-(2-fluoro-3-methoxy-4-trifluoromethylphenyl)pyridine-2-carboxylic acid methyl ester] returned a melting point of 144 to 146 °C. Also, the pest or weed control at 140 g/ha in [1] worked out at 95%. Also, the pest or weed control at 140 g/ha in series [2] amounted to 80%. Besides, the pest or weed control at 140 g/ha in series [3] stood at 100%. Also, in the series with Galium aparine, the pest or weed control at 17.5 g/ha was 90%. For the same compound, in the series on Lamium purpureum, the pest or weed control at 17.5 g/ha was 100%. In addition, the pest or weed control at 17.5 g/ha with Papaver rhoeas came to 90%. Moreover, the pest or weed control at 17.5 g/ha in the series with Veronica persica is 80%. The pest or weed control at 17.5 g/ha in the series on barley (Hordeum vulare) came out at 0%. Further, the plant injury at 17.5 g/ha in series [4] came out at 0%.

In the case of `COC(=O)c1nc(-c2c(F)cc(Cl)c(N(C)C)c2F)cc(N)c1Cl` [Compound 50, 4-Amino-3-chloro-6-[4-chloro-3-(dimethylamino)-2,6-difluorophenyl]pyridine-2-carboxylic acid, methyl ester], the pest or weed control at 140 g/ha in [1], in [2], in series [3], in series [5], in series [6] and in series [7] was 100% in each case. Further, the pest or weed control at 70 g/ha worked out at 95% in the series with Galium aparine; 100% in the series on Lamium purpureum; 95% in the series with Papaver rhoeas; 60% with Veronica persica; 0% in the series on barley (Hordeum vulare). Also, in [4], the plant injury at 70 g/ha was found to be 0%.

Consider `COC(=O)c1nc(-c2cc(N(C)C)c(Cl)cc2F)cc(N)c1Cl` [Compound 26, 4-amino-3-chloro-6-(4-chloro-5-dimethylamino-2-fluorophenyl)pyridine-2-carboxylic acid methyl ester], for which the melting point was 113 to 115 °C. The pest or weed control at 140 g/ha in series [1] came to 100%. Moreover, the pest or weed control at 140 g/ha in series [2] was 100%. Further, the pest or weed control at 140 g/ha in series [3] is 100%. In addition, the pest or weed control at 140 g/ha in series [5] was found to be 90%. Moreover, the pest or weed control at 140 g/ha in [6] amounted to 10%. In addition, in series [7], the pest or weed control at 140 g/ha came out at 10%. For the same compound, the pest or weed control at 70 g/ha in the series on Galium aparine worked out at 80%. Besides, in the series on Lamium purpureum, the pest or weed control at 70 g/ha was 95%. Further, the pest or weed control at 70 g/ha in the series on Papaver rhoeas came to 95%. The pest or weed control at 70 g/ha in the series on Veronica persica stood at 40%. The pest or weed control at 70 g/ha in the series on barley (Hordeum vulare) stood at 10%. Besides, the plant injury at 70 g/ha in series [4] is 0%.

As to `COc1cc(-c2cc(N)c(Cl)c(C(=O)O)n2)c(F)cc1Cl` [Compound 101, 4-Amino-3-chloro-6-(4-chloro-2-fluoro-5-methoxyphenyl)pyridine-2-carboxylic acid], the pest or weed control at 140 g/ha in series [1], in series [2], in series [3], in [5], in series [6] and in [7] was 100% each time. Moreover, the pest or weed control at 70 g/ha in the series on Galium aparine is 60%; in the series on Lamium purpureum, 99%; in the series on Papaver rhoeas, 100%; with Veronica persica, 60%; in the series on barley (Hordeum vulare) it was 5%. Further, the plant injury at 70 g/ha in series [4] is 10%.

In the case of `COC(=O)c1nc(-c2ccc(Cl)c(SC)c2F)cc(N)c1Cl` [Compound 1], the entries for the “% Control CHEAL” value in series [1] and in series [5] were 100% and 90%, respectively. The “% Control AMARE” value in series [2] and in [6] was 100% each time. Besides, the “% Control ABUTH” value in series [3] is 85%; in series [7] it was 80%. Moreover, the “% Control GALAP” value in the series with Galium aparine (35 g ai/ha) is listed as 85%. In addition, the “% Control LAMPU” value with Lamium purpureum (35 g ai/ha) stood at 80%. Moreover, the “% Control PAPRH” value in the series on Papaver rhoeas (35 g ai/ha) is given as 80%. The “% Control VERPE” value in the series with Veronica persica (35 g ai/ha) amounted to 50%. In the series on barley (Hordeum vulare) (35 g ai/ha), the “% Control HORVS” value turned out to be 10%. Besides, the “% Control TRZAS” value in series [4] (35 g ai/ha) came to 5%.
